Data on 9 compounds can be found in US9700543B2, “GLP-1 receptor stabilizers and modulators” (Celgene International II SÀRL, priority 2011, dated 2017).

A word on the EC50: it is the concentration giving half of the maximal effect. The bioavailability is dose-corrected exposure relative to a reference, in per cent. A low value points to little systemic uptake.

One data set concerns the target T1, GLP-1R (Homo sapiens, UniProt P43220).
T1 construct: host or cells: CRE-bla CHO-K1
The data set can be described thus: EC20 GLP-1(9-36) PAM cAMP assay: dose response of compound in the presence of fixed concentration of GLP-1(9-36). In kind it is cell-based. The following applies: compound dose response with fixed GLP-1(9-36), GLP-1R CRE-bla CHO-K1 cells; for EC20 GLP-1 (9-36) PAM Activity max cAMP: Emax as total cAMP; for EC50: cAMP. As to the method:
EC20GLP-1(9-36) PAM cAMP Assay: Dose Response of Compound in the Presence of Fixed Concentration of GLP-1 (9-36)
GLP-1R CRE-bla CHO-K1 cells were seeded into 384-well white flat bottom plates at 10,000 cells/well/20 μL growth medium (DMEM-High glucose, 10% dialyzed FBS, 0.1 mM NEAA, 25 mM Hepes, 100 U/mL penicillin/100 μg/mL streptomycin, 5 μg/mL Blasticidin, 600 μg/mL Hygromycin) and incubated for 18 h at 37° C. in 5% CO2. Growth medium was replaced with 12 μL assay buffer (Hanks Balanced Salt solution, 10 mM Hepes, 0.1% BSA, pH7.4). A 5× compound dose response curve (12-point) was generated in assay buffer containing 1.5 mM IBMX, 12.5% DMSO. GLP-1(9-36) was diluted to 4.2 μM in assay buffer containing 1.5 mM IBMX and 12.5% DMSO. The 5× compound dose response was added (3 μL), followed by 0.5 μL of GLP-1(9-36) and cells were incubated for 30 min at 37° C. Direct detection of cAMP was carried out using DiscoveRx HitHunter cAMP kit according to manufacturer's instructions and luminescence was read using a SpectraMax M5 plate reader. Luminescence was converted to total cAMP using a cAMP standard curve and data was analyzed by non-linear regression to determine the EC50 and Emax.
On the technique in general: Changes in cAMP serve as a functional read-out for many G protein-coupled receptors.

The nature of data set [1]: Determination of absolute oral bioavailability in rats. In kind it is in vivo. To be noted: rat, plasma; fasted female Sprague-Dawley rats; oral solution 5 mg/kg, intravenous 1 mg/kg. As for the experimental part: Determination of Absolute Oral Bioavailability in Rats
All pharmacokinetic studies were conducted in fasted female Sprague-Dawely rats (Simonsen Laboratories or Harlan Laboratories). Rats were housed in an ALAAC accredited facility and the research was approved by the facilities Institutional Animal Care and Use Committee (IACUC). The animals were acclimated to the laboratory for at least 48 h prior to initiation of experiments.
Compounds were formulated in 20% hydroxy beta cyclodextrin or 20% captisol and 80%-25 mM NaPO4 Buffer (pH 8) (intravenous infusion), or 5% DMSO/5% Tween20 and 90% water (oral gavage or intraperitoneal injection). The concentration of the dosing solutions was verified by HPLC-UV. For intravenous dosing, compounds were administered into the tail vein to manually restrained animals (n=3 rats/compound). The intravenous dose was 1 mg/kg. Oral dosing was by gavage using a standard stainless steel gavage needle (n=2-4 rats/compound). The oral solution dose was 5 mg/kg. For compounds 1 and 3, the oral solution dose was 30 mg/kg. For both routes of administration, blood was collected into BD Microtainer tubes with Dipotassium EDTA as the anticoagulantant eight time-points after dosing with the final sample drawn 24 h post dose Plasma was separated by centrifugation and transferred to a polypropylene 96-well plate and kept at 4° C. until analysis.
Proteins were precipitated by adding 150 μL acetonitrile to 50 μL of plasma. Plates were mixed for 1 min on a plate shaker to facilitate protein precipitation and then centrifuged at 3,000 rpm for 10 min to pellet protein. The supernatant was transferred to a clean plate and centrifuged at 3,000 rpm for 10 min to pellet any remaining solid material prior to LC/MS/MS analysis. Calibration curve standards were prepared by spiking 54 compound stock in DMSO into rat plasma from untreated animals. An eight point standard curve spanning a range of 0.14 nM to 300 nM was included with each bio-analytical run. The standards were processed identically to the rat pharmacokinetic samples.
Concentrations in the rat pharmacokinetic samples were determined using a standardized HPLC-LC/MS/MS method relative to the eight point standard curve. The system consisted of a Leap CTC Pal injector, Agilent 1200 HPLC with binary pump coupled with an Applied Biosystems 4000 QTrap. Compounds were chromatographed on a Phenomenex Luna C8(2) 20×2 mm 2 um Mercury Cartridge with Security Guard. A gradient method was used with mobile phase A consisting of 0.1% formic acid in water and mobile phase B consisting of 0.1% formic acid in acetonitrile at flow rates varying from 0.7 to 0.8 mL/min. Ions were generated in positive ionization mode using an electrospray ionization (ESI) interface. Multiple reaction monitoring (MRM) methods were developed specific to each compound. The heated nebulizer was set at 500° C. with a nebulizer current of 5.1 μA. Collision energies used to generate daughter ions ranged between 29 and 80 V. Peak area obtained from MRM of the mass transitions specific for each compound were used for quantification. The limit of quantification of the method was typically 1.2 nM. Data were collected and analyzed using Analyst software version 1.5.1. Blood concentration versus time data were analyzed using non-compartmental methods (WinNonlin Phoenix version 6.2; model 200 for oral or intraperitoneal dosing and model 202 for intravenous infusion). Absolute oral bioavailability (%) was calculated using the following expression: (Oral AUC×IV Dose)/(IV AUC×Oral Dose)×100.

T1 sequence (P43220 24-463): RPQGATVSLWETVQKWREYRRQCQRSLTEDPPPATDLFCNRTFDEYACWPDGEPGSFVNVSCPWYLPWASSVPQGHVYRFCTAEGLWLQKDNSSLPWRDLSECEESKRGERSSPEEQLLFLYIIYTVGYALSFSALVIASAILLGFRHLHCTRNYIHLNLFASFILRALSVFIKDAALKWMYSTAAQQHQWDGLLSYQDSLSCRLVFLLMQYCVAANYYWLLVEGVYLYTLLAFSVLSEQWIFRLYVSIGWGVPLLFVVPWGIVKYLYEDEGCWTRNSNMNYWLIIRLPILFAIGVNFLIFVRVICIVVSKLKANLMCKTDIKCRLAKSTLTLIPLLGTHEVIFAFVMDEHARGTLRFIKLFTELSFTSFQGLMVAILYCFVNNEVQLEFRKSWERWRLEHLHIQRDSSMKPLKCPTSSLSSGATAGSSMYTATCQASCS
T1 sequence (P01275 100-127 partner limits assumed): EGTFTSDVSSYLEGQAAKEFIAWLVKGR

Take `COc1ccc(CC(=O)Nc2ccc(C(=O)N(CC(=O)O)Cc3ccc(-c4nc(-c5ccc(-c6ccc(C)cc6)cc5)no4)cc3)cc2)c(C(F)(F)F)c1` [Compound 362, 2-(4-(2-(4-methoxy-2-(trifluoromethyl)phenyl)acetamido)-N-(4-(3-(4′-methyl-[1,1′-biphenyl]-4-yl)-1,2,4-oxadiazol-5-yl)benzyl)benzamido)acetic acid]: on GLP-1R, the “EC20 GLP-1 (9-36) PAM Activity max cAMP” value is recorded as 281 nM and the EC50 was 300 nM. This compound showed a bioavailability in data set [1] of 8%.
Turning to `COc1ccc(CC(=O)Nc2ccc(C(=O)N(CC(=O)O)Cc3ccc(-c4nc(-c5ccc(C)cc5)no4)cc3)cc2)c(C(F)(F)F)c1` [Compound 363, 2-(4-(2-(4-methoxy-2-(trifluoromethyl)phenyl)acetamido)-N-(4-(3-(p-tolyl)-1,2,4-oxadiazol-5-yl)benzyl)benzamido)acetic acid], at GLP-1R, the “EC20 GLP-1 (9-36) PAM Activity max cAMP” value was 237 nM and the EC50 came to 3200 nM. Moreover, the bioavailability in data set [1] is 3%.
For `COc1ccc(CC(=O)Nc2ccc(C(=O)N(CC(=O)O)Cc3ccc(-c4coc(-c5ccc(-c6ccc(C)cc6)cc5)n4)cc3)cc2)c(C(F)(F)F)c1` [Compound 364, 2-(4-(2-(4-methoxy-2-(trifluoromethyl)phenyl)acetamido)-N-(4-(2-(4′-methyl-[1,1′-biphenyl]-4-yl)oxazol-4-yl)benzyl)benzamido)acetic acid], at GLP-1R, the “EC20 GLP-1 (9-36) PAM Activity max cAMP” value came out at 278 nM and the EC50 came to 400 nM. Moreover, in data set [1], the bioavailability was determined as 10%.
On to `COc1ccc(OC)c(CC(=O)Nc2ccc(C(=O)N(CC(=O)O)Cc3ccc(-c4noc(-c5ccc(-c6ccc(C)cc6)cc5)n4)cc3)cc2)c1` [Compound 405, 2-(4-(2-(2,5-dimethoxyphenyl)acetamido)-N-(4-(5-(4′-methyl-[1,1′-biphenyl]-4-yl)-1,2,4-oxadiazol-3-yl)benzyl)benzamido)acetic acid], for which, on GLP-1R, the “EC20 GLP-1 (9-36) PAM Activity max cAMP” value is reported as 206 nM and the EC50 is 300 nM. Also, the bioavailability in data set [1] was 8%.
On to `COc1cccc(OC)c1CC(=O)Nc1ccc(C(=O)N(CC(=O)O)Cc2ccc(-c3noc(-c4ccc(-c5ccc(C)cc5)cc4)n3)cc2)cc1` [Compound 411, 2-(4-(2-(2,6-dimethoxyphenyl)acetamido)-N-(4-(5-(4′-methyl-[1,1′-biphenyl]-4-yl)-1,2,4-oxadiazol-3-yl)benzyl)benzamido)acetic acid], for which, on GLP-1R, the “EC20 GLP-1 (9-36) PAM Activity max cAMP” value was 258 nM and the EC50 was found to be 200 nM. Also, the bioavailability in data set [1] was 10%.
For `COc1ccc(F)c(CC(=O)Nc2ccc(C(=O)N(CC(=O)O)Cc3ccc(-c4noc(-c5ccc(-c6ccc(C)cc6)cc5)n4)cc3)cc2)c1F` [Compound 441, 2-(4-(2-(2,6-difluoro-3-methoxyphenyl)acetamido)-N-(4-(5-(4′-methyl-[1,1′-biphenyl]-4-yl)-1,2,4-oxadiazol-3-yl)benzyl)benzamido)acetic acid] the same measures were 167 nM, 500 nM and 5%.
The matching figures for `COc1ccc(OC)c(CC(=O)Nc2ccc(C(=O)N(CC(=O)O)Cc3ccc(-c4nc(-c5ccc(-c6ccc(C)cc6)cc5)no4)cc3)cc2)c1` [Compound 457, 2-(4-(2-(2,5-dimethoxyphenyl)acetamido)-N-(4-(3-(4′-methyl-[1,1′-biphenyl]-4-yl)-1,2,4-oxadiazol-5-yl)benzyl)benzamido)acetic acid]: 266 nM, 200 nM and 19.4%.
Turning to `COc1cccc(OC)c1CC(=O)Nc1ccc(C(=O)N(CC(=O)O)Cc2ccc(-c3nc(-c4ccc(-c5ccc(C)cc5)cc4)no3)cc2)cc1` [Compound 458, 2-(4-(2-(2,6-dimethoxyphenyl)acetamido)-N-(4-(3-(4′-methyl-[1,1′-biphenyl]-4-yl)-1,2,4-oxadiazol-5-yl)benzyl)benzamido)acetic acid], at GLP-1R, the “EC20 GLP-1 (9-36) PAM Activity max cAMP” value is reported as 302 nM and the EC50 is 200 nM. In data set [1], this compound had a bioavailability of 14.8%.
For `COc1ccc(CC(=O)Nc2ccc(C(=O)N(CC(=O)O)Cc3ccc(-c4noc(-c5ccc(-c6ccc(C)cc6)cc5)n4)cc3)c(F)c2)c(C(F)(F)F)c1` [Compound 496, 2-(2-fluoro-4-(2-(4-methoxy-2-(trifluoromethyl)phenyl)acetamido)-N-(4-(5-(4′-methyl-[1,1′-biphenyl]-4-yl)-1,2,4-oxadiazol-3-yl)benzyl)benzamido)acetic acid] the same measures were 310 nM, 500 nM and 7%.
